Biological target: T1, folate receptors (FRs) on KB cells (Homo sapiens, UniProt P15328)
T1 construct: FR-positive KB cells were heavily seeded into 24-well cell culture plates; endogenous in cells; host or cells: KB cells
Assay: Relative Affinity Assay (displacement of 3H-folic acid)
Format: binding
Conditions: 10% serum/FDRPMI; folic acid set to 1
Protocol: METHOD: Relative Affinity Assay. The affinity for folate receptors (FRs) relative to folate was determined according to a previously described method (Westerhof, G. R., J. H. Schornagel, et al. (1995) Mol. Pharm. 48: 459-471) with slight modification. Briefly, FR-positive KB cells were heavily seeded into 24-well cell culture plates and allowed to adhere to the plastic for 18 h. Spent incubation media was replaced in designated wells with folate-free RPMI (FFRPMI) supplemented with 100 nM ^3H-folic acid in the absence and presence of increasing concentrations of test article or folic acid. Cells were incubated for 60 min at 37° C. and then rinsed 3 times with PBS, pH 7.4. Five hundred microliters of 1% SDS in PBS, pH 7.4, were added per well. Cell lysates were then collected and added to individual vials containing 5 mL of scintillation cocktail, and then counted for radioactivity. Negative control tubes contained only the ^3H-folic acid in FFRPMI (no competitor). Positive control tubes contained a final concentration of 1 mM folic acid, and CPMs measured in these samples (representing non-specific binding of label) were subtracted from all samples.

T1 sequence (P15328 25-234): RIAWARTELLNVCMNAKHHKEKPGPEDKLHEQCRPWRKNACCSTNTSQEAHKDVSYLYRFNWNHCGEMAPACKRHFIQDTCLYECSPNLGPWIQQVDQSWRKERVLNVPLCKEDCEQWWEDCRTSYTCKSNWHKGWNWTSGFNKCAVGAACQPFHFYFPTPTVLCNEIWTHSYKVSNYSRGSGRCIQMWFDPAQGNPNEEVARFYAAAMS

- relative affinity: 1
Compound: Nc1nc2ncc(CNc3ccc(C(=O)N[C@@H](CCC(=O)O)C(=O)O)cc3)nc2c(=O)[nH]1 [folic acid]

Reference: US20130116195A1, “Binding ligand linked drug delivery conjugates of tubulysins” (priority 2009, published 2013)
